Source: PubChem BioAssay AID248 (DTP/NCI, 2004)
Where “and” joins values, the source holds several entries; their conditions need not be identical. Identical values can stand only once. Inconclusive results and toxic doses are left out.

Tested on: L1210 leukemia ip in BDF1 mice, survival T/C
Experiment: NCI In Vivo Anticancer Drug Screen. Data for tumor model L1210 Leukemia (intraperitoneal) in B6D2F1 (BDF1) mice
Conditions: endpoint: mean survival time, higher = longer survival
Summary of the method: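 Survival endpoint. Drug-treated group vs vehicle group, expressed as T divided by C. Tumor passaged by transplantation.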

[1] = dose: 50.0 mg/kg/injection, schedule: Q01DX001 (ip), vehicle: carboxymethylcellulose (CMC)
[2] = dose: 200.0 mg/kg/injection, schedule: Q01DX001 (ip), vehicle: carboxymethylcellulose (CMC)
[3] = dose: 400.0 mg/kg/injection, schedule: Q01DX001 (ip), vehicle: carboxymethylcellulose (CMC)

Cn1c(N)c(N=Cc2ccc(C=Nc3c(N)n(C)c(=O)n(C)c3=O)cc2)c(=O)n(C)c1=O
T/C [1]: 88 % of control | T/C [2]: 96 % of control | T/C [3]: 90 % of control

Cc1cccc(C)c1NC(=S)N(CCC#N)Cc1ccccc1
T/C (dose: 100.0 mg/kg/injection, schedule: Q01DX009 (ip), vehicle: Klucel (hydroxypropylcellulose) (HPC)): 107 % of control | T/C (dose: 200.0 mg/kg/injection, schedule: Q01DX009 (ip), vehicle: Klucel (hydroxypropylcellulose) (HPC)): 94 % of control | T/C (dose: 400.0 mg/kg/injection, schedule: Q01DX009 (ip), vehicle: Klucel (hydroxypropylcellulose) (HPC)): 96 % of control

N#CC12CCC(c3ccccc31)c1ccccc12
T/C (dose: 100.0 mg/kg/injection, schedule: Q04DX002 (ip), vehicle: gum acacia): 99 % of control | T/C (dose: 200.0 mg/kg/injection, schedule: Q04DX002 (ip), vehicle: gum acacia): 101 % of control | T/C (dose: 400.0 mg/kg/injection, schedule: Q04DX002 (ip), vehicle: gum acacia): 92 % of control

COc1ccc(OC)c(N(CCN2C(=O)c3ccccc3C2=O)C(=O)CCl)c1
T/C (dose: 25.0 mg/kg/injection, schedule: Q04DX002 (ip), vehicle: Klucel (hydroxypropylcellulose) (HPC)): 97 % of control | T/C (dose: 50.0 mg/kg/injection, schedule: Q04DX002 (ip), vehicle: Klucel (hydroxypropylcellulose) (HPC)): 90 % of control | T/C (dose: 100.0 mg/kg/injection, schedule: Q04DX002 (ip), vehicle: Klucel (hydroxypropylcellulose) (HPC)): 97 % of control and 91 % of control

O=c1cc(C2CCCCC2)c2ccccc2[nH]1
T/C (dose: 100.0 mg/kg/injection, schedule: Q04DX003 (ip), vehicle: gum acacia): 91 % of control | T/C (dose: 200.0 mg/kg/injection, schedule: Q04DX003 (ip), vehicle: gum acacia): 97 % of control | T/C (dose: 400.0 mg/kg/injection, schedule: Q04DX003 (ip), vehicle: gum acacia): 91 % of control

c1cc[c]([Sb]([c]2ccccc2)[n]2ccnc2)cc1
T/C (dose: 5.0 mg/kg/injection, schedule: Q04DX002 (ip), vehicle: saline with Tween-80): 97 % of control | T/C (dose: 10.0 mg/kg/injection, schedule: Q04DX002 (ip), vehicle: saline with Tween-80): 97 % of control

CCN(CC)CCOc1cccc(O)c1
T/C (dose: 25.0 mg/kg/injection, schedule: Q04DX003 (ip), vehicle: Klucel (hydroxypropylcellulose) (HPC)): 94 % of control | T/C (dose: 50.0 mg/kg/injection, schedule: Q04DX003 (ip), vehicle: Klucel (hydroxypropylcellulose) (HPC)): 97 % of control | T/C (dose: 100.0 mg/kg/injection, schedule: Q01DX001 (ip), vehicle: Klucel (hydroxypropylcellulose) (HPC)): 93 % of control | T/C (dose: 100.0 mg/kg/injection, schedule: Q04DX003 (ip), vehicle: Klucel (hydroxypropylcellulose) (HPC)): 100 % of control and 107 % of control | T/C (dose: 200.0 mg/kg/injection, schedule: Q01DX001 (ip), vehicle: Klucel (hydroxypropylcellulose) (HPC)): 91 % of control

COC(CNCc1ccccc1)OC
T/C (dose: 75.0 mg/kg/injection, schedule: Q01DX001 (ip), vehicle: steriod suspending solution): 101 % of control | T/C (dose: 150.0 mg/kg/injection, schedule: Q01DX001 (ip), vehicle: steriod suspending solution): 102 % of control

O=CC(OC(=O)c1ccccc1)C(OC(=O)c1ccccc1)C(COC(c1ccccc1)(c1ccccc1)c1ccccc1)OC(=O)c1ccccc1 (stereo unspecified)
T/C [1]: 97 % of control | T/C (dose: 100.0 mg/kg/injection, schedule: Q01DX001 (ip), vehicle: carboxymethylcellulose (CMC)): 103 % of control | T/C [2]: 103 % of control | T/C [3]: 91 % of control

COc1ccc(CCNCC(O)CSc2cccc(C)c2)cc1OC (stereo unspecified)
T/C (dose: 75.0 mg/kg/injection, schedule: Q01DX001 (ip), vehicle: saline): 101 % of control | T/C (dose: 150.0 mg/kg/injection, schedule: Q01DX001 (ip), vehicle: saline): 95 % of control

CCOC(=O)Oc1c(Cl)cc(S(=O)(=O)F)cc1Cl
T/C (dose: 100.0 mg/kg/injection, schedule: Q04DX003 (ip), vehicle: carboxymethylcellulose (CMC)): 101 % of control | T/C (dose: 200.0 mg/kg/injection, schedule: Q04DX003 (ip), vehicle: carboxymethylcellulose (CMC)): 108 % of control | T/C (dose: 400.0 mg/kg/injection, schedule: Q04DX003 (ip), vehicle: carboxymethylcellulose (CMC)): 90 % of control

Cc1ccc(C2=C(c3ccc(C)cc3)CS(=O)(=O)C2)cc1
T/C (dose: 100.0 mg/kg/injection, schedule: Q01DX001 (ip), vehicle: saline with Tween-80): 95 % of control | T/C (dose: 200.0 mg/kg/injection, schedule: Q01DX001 (ip), vehicle: saline with Tween-80): 168 % of control | T/C (dose: 400.0 mg/kg/injection, schedule: Q01DX001 (ip), vehicle: saline with Tween-80): 244 % of control
